Where a name gives a salt, the structure may show the parent alone.
Molecular target: T1, Mouse VCP (Mus musculus, UniProt Q01853)
T1 construct: histidine tag (N); made in house; host or cells: Sf-9 insect cells (baculovirus vector pVL1392)
Assay: ATPase activity of purified His-tagged VCP, [γ-32P]ATP, liberated phosphate by liquid scintillation
Assay type: biochemical
Experimental: In one aspect, the effect of VCP regulators for regulating ATPase activity is determined, for example by the following exemplary assay. Mouse VCP cDNA (the amino acid sequence is completely identical among mouse, rat and human) is added with a DNA sequence corresponding to a histidine tag at the amino-terminal, subcloned into a baculovirus vector pVL1392 (BD Bioscience), and expressed in Sf-9 insect cells. The protein is purified with a nickel column. After the purification the concentration of the protein is adjusted to 0.25-0.5 μg/ml and the protein is stored in a solution containing 50 mM TrisCl pH 8.0, 5 mM EDTA, 10% glycerol, and 15 mM DTT at 4° C. 500 ng of the purified VCP is mixed with 100 μM [γ-^32P]ATP (18.5 GBq/mmol) and the test substance in 20 μL of ATPase buffer (20 mM HEPES (pH7.4), 50 mM KCl, 5 mM MgCl2, 15 mM DTT), and incubated at 37° C. for 10 minutes. The enzyme reaction is stopped with addition of 200 μL of an ice-cold solution containing 7% TCA and 1 mM K2HPO4. 50μ of a solution containing 3.75% ammonium molybdate and 0.02M tungstate silicic/3 N H2SO4 is added, followed by 300 μL of n-butylacetic acid, and then the liberated phosphate is extracted into the organic layer. The reaction tube is centrifuged for 5 minutes at 20,000 g to separate the aqueous layer and the organic layer, 200 μL of the organic layer is taken, and the beta ray radiated from the liberated phosphate is quantified with liquid scintillation counter. By measuring the ATPase activity in the presence of the test substance at various concentrations, ATPase inhibitory activity of the test substance is measured.
Mouse VCP cDNA was added with a DNA sequence corresponding to histidine tag at the amino-terminal, subcloned into a baculovirus vector pVL1392 (BD Bioscience), and expressed in Sf-9 insect cells. The protein was purified with a nickel column (GE Healthcare). The concentration of the protein was adjusted to 0.25-0.5 μg/ml and the protein was stored in a solution containing 50 mM TrisCl pH 8.0, 5 mM EDTA, 10% glycerol, and 15 mM DTT.
The ATPase activity was determined as follows. 500 ng of the purified VCP was mixed with 100 μM [γ-32P]ATP (18.5 GBq/mmol) and the test substance in 20 μL of ATPase buffer (20 mM HEPES (pH7.4), 50 mM KCl, 5 mM MgCl2, 15 mM DTT), and incubated at 37° C. for 10 minutes.
The enzyme reaction was stopped with addition of 200 μL of an ice-cold solution containing 7% TCA and 1 mM K2HPO4. 50μ of a solution containing 3.75% ammonium molybdate and 0.02M tungstate silicic/3 NH2SO4 was added, followed by 300 μL of n-butylacetic acid, and then the liberated phosphate was extracted into the organic layer. The reaction tube was centrifuged for 5 minutes at 20,000 g to separate the aqueous layer and the organic layer, 200 μL of the organic layer was taken, and the beta ray radiated from the liberated phosphate was quantified with liquid scintillation counter.
By measuring the ATPase activity in the presence of the test substance at various concentrations, ATPase inhibitory activity of the test substance was measured. IC50 of the each test substance was calculated by applying the measured values to the equation below using GraphPad Prism (GraphPad Software).

[1] = compounds of Examples, ATPase inhibitory activity, 500 ng VCP, 100 μM ATP, 37° C., 10 minutes
[2] = compounds of Comparative Examples, determined in the same manner as the Examples

T1 sequence (Q01853 whole entry): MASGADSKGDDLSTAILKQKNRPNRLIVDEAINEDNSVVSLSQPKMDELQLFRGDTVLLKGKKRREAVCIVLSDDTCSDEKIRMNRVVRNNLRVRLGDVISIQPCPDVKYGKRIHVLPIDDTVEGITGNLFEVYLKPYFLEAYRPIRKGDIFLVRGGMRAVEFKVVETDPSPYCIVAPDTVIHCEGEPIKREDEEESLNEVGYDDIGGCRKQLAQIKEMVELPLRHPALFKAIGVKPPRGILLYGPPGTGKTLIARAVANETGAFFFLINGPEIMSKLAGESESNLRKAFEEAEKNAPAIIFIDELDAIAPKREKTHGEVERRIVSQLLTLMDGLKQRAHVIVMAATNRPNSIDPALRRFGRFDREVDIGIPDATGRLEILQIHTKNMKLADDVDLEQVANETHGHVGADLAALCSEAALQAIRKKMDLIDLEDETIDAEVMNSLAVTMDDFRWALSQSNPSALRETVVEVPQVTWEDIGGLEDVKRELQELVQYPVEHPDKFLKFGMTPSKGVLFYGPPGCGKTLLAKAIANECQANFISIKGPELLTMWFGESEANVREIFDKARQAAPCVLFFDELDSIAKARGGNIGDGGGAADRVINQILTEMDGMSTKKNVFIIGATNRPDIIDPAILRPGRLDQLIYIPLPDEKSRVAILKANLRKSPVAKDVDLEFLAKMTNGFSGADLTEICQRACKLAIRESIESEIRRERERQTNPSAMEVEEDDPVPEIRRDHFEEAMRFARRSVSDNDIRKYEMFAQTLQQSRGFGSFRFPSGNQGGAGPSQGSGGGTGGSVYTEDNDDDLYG

IC50 [2] [nM]	Compound	IC50 [1] [nM]
–	Nc1c(/N=N/c2cccnc2)cc(S(=O)(=O)O)c2ccccc12 [Example 1, 4-amino-3-(pyridine-3-ylazo)naphthalene-1-sulfonic acid sodium salt]	1580
–	COc1ccc(/N=N/c2cc(S(=O)(=O)O)c3ccccc3c2N)cn1 [Example 2, 4-amino-3-(6-methoxypyridine-3-ylazo)naphthalene-1-sulfonic acid sodium salt]	571
> 10000	Nc1ccc(/N=N/c2ccccc2)c2ccc(S(=O)(=O)O)cc12 [Example 2, sodium salt]	–
–	Nc1c(/N=N/c2ccc(OCc3cccnc3)nc2)cc(S(=O)(=O)O)c2ccccc12 [Example 3, 3-(2-pyridinomethoxy-5-pyridinoazo)-4-amino-1-naphthalenesulfonic acid sodium salt]	281
–	Nc1c(/N=N/c2ccc(OCC3CCCO3)nc2)cc(S(=O)(=O)O)c2ccccc12 (stereo not drawn) [Example 4, 4-amino-3-[6-(tetrahydrofuran-2-ylmethoxy)pyridine-3-ylazo]-1-naphthalenesulfonic acid sodium salt]	407
–	Nc1c(/N=N/c2ccc(OCC(F)(F)F)nc2)cc(S(=O)(=O)O)c2ccccc12 [Example 5, 4-amino-3-[6-(2,2,2-trifluoroethoxy)pyridine-3-ylazo]naphthalene-1-sulfonic acid sodium salt]	495
–	COCCOc1ccc(/N=N/c2cc(S(=O)(=O)O)c3ccccc3c2N)cn1 [Example 6, 4-amino-3-[6-(2-methoxyethoxy)pyridine-3-ylazo]naphthalene-1-sulfonic acid sodium salt]	518
–	Nc1c(/N=N/c2ccc(-c3ccccc3)nc2)cc(S(=O)(=O)O)c2ccccc12 [Example 7, 4-amino-3-(6-phenylpyridine-3-ylazo)naphthalene-1-sulfonic acid sodium salt]	229
–	Cc1ccc(-c2ccc(/N=N/c3cc(S(=O)(=O)O)c4ccccc4c3N)cn2)cc1 [Example 8, 4-amino-3-(6-p-tolylpyridine-3-ylazo)naphthalene-1-sulfonic acid sodium salt]	430
–	Cc1cccc(-c2ccc(/N=N/c3cc(S(=O)(=O)O)c4ccccc4c3N)cn2)c1 [Example 9, 4-amino-3-(6-m-tolylpyridine-3-ylazo)naphthalene-1-sulfonic acid sodium salt]	188
–	Cc1ccccc1-c1ccc(/N=N/c2cc(S(=O)(=O)O)c3ccccc3c2N)cn1 [Example 10, 4-amino-3-(6-o-tolylpyridine-3-ylazo)naphthalene-1-sulfonic acid sodium salt]	149
–	Nc1c(/N=N/c2ccc(-c3cccc(CN4CCOCC4)c3)nc2)cc(S(=O)(=O)O)c2ccccc12 [Example 11, 4-amino-3-[6-(3-morpholine-4-ylmethylphenyl)pyridine-3-ylazo]naphthalene-1-sulfonic acid sodium salt]	426
–	Nc1c(/N=N/c2ccc(-c3ccccc3-c3ccccc3)nc2)cc(S(=O)(=O)O)c2ccccc12 [Example 12, 4-amino-3-(6-biphenyl-2-ylpyridine-3-ylazo)naphthalene-1-sulfonic acid sodium salt]	116
> 10000	N#Cc1cc(/N=N/c2ccc(-c3ccccc3)nc2)c(N)c2ccccc12 [Example 12, sodium salt]	–
–	CCOc1ccncc1/N=N/c1cc(S(=O)(=O)O)c2ccccc2c1N [Example 13, 4-amino-3-(4-ethoxypyridine-3-ylazo)naphthalene-1-sulfonic acid sodium salt]	26600
–	CC(=O)c1ccccc1-c1ccc(/N=N/c2cc(S(=O)(=O)O)c3ccccc3c2N)cn1 [Example 14, 3-[6-(2-acetylphenyl)pyridine-3-ylazo]-4-aminonaphthalene-1-sulfonic acid sodium salt]	178
> 10000	Nc1c(/N=N/c2ccc(-c3ccccc3-c3ccccc3)nc2)cc(S(N)(=O)=O)c2ccccc12 [Example 14, sodium salt]	–

IC50 [2] [nM]	Compound	IC50 [1] [nM]
–	CC(=O)c1cccc(-c2ccc(/N=N/c3cc(S(=O)(=O)O)c4ccccc4c3N)cn2)c1 [Example 15, 3-[6-(3-acetylphenyl)pyridine-3-ylazo]-4-aminonaphthalene-1-sulfonic acid sodium salt]	189
–	Nc1c(/N=N/c2ccc(-c3cccs3)nc2)cc(S(=O)(=O)O)c2ccccc12 [Example 17, 4-amino-3-(6-thiophene-2-ylpyridine-3-ylazo)naphthalene-1-sulfonic acid sodium salt]	143
–	Nc1c(/N=N/c2ccc(-c3ccsc3)nc2)cc(S(=O)(=O)O)c2ccccc12 [Example 18, 4-amino-3-(6-thiophene-3-ylpyridine-3-ylazo)naphthalene-1-sulfonic acid sodium salt]	163
–	Nc1c(/N=N/c2ccc(-c3ccc(Cl)cc3Cl)nc2)cc(S(=O)(=O)O)c2ccccc12 [Example 19, 4-amino-3-[6-(2,4-dichlorophenyl)pyridine-3-ylazo]naphthalene-1-sulfonic acid sodium salt]	178
–	Nc1c(/N=N/c2ccc(-c3ccccc3C(F)(F)F)nc2)cc(S(=O)(=O)O)c2ccccc12 [Example 20, 4-amino-3-[6-(2-trifluoromethylphenyl)pyridine-3-ylazo]naphthalene-1-sulfonic acid sodium salt]	170
> 10000	Nc1ccc(S(=O)(=O)O)c2ccccc12 [Example 20, sodium salt]	–
–	Nc1c(/N=N/c2ccc(-c3ccc(C(F)(F)F)cc3)nc2)cc(S(=O)(=O)O)c2ccccc12 [Example 21, 4-amino-3-[6-(4-trifluoromethylphenyl)pyridine-3-ylazo]naphthalene-1-sulfonic acid sodium salt]	445
–	Nc1c(/N=N/c2ccc(-c3ccccc3Cl)nc2)cc(S(=O)(=O)O)c2ccccc12 [Example 22, 4-amino-3-[6-(2-chlorophenyl)pyridine-3-ylazo]naphthalene-1-sulfonic acid sodium salt]	197
–	Nc1c(/N=N/c2ccc(-c3cccc(Cl)c3)nc2)cc(S(=O)(=O)O)c2ccccc12 [Example 23, 4-amino-3-[6-(3-chlorophenyl)pyridine-3-ylazo]naphthalene-1-sulfonic acid sodium salt]	324
–	Nc1c(/N=N/c2ccc(-c3ccc(Cl)cc3)nc2)cc(S(=O)(=O)O)c2ccccc12 [Example 24, 4-amino-3-[6-(4-chlorophenyl)pyridine-3-ylazo]naphthalene-1-sulfonic acid sodium salt]	540
–	COc1ccccc1-c1ccc(/N=N/c2cc(S(=O)(=O)O)c3ccccc3c2N)cn1 [Example 25, 4-amino-3-[6-(2-methoxyphenyl)pyridine-3-ylazo]naphthalene-1-sulfonic acid sodium salt]	300
–	COc1ccc(-c2ccc(/N=N/c3cc(S(=O)(=O)O)c4ccccc4c3N)cn2)cc1 [Example 26, 4-amino-3-[6-(4-methoxyphenyl)pyridine-3-ylazo]naphthalene-1-sulfonic acid sodium salt]	304
> 10000	Nc1c(-c2ccccc2)cc(S(=O)(=O)O)c2ccccc12 [Example 26, sodium salt]	–
–	CC(C)Oc1ccccc1-c1ccc(/N=N/c2cc(S(=O)(=O)O)c3ccccc3c2N)cn1 [Example 27, 4-amino-3-[6-(2-isopropoxyphenyl)pyridine-3-ylazo]naphthalene-1-sulfonic acid sodium salt]	145
–	CC(C)Oc1ccc(-c2ccc(/N=N/c3cc(S(=O)(=O)O)c4ccccc4c3N)cn2)cc1 [Example 28, 4-amino-3-[6-(4-isopropoxyphenyl)pyridine-3-ylazo]naphthalene-1-sulfonic acid sodium salt]	416
–	Nc1c(/N=N/c2ccc(-c3ccccc3Oc3ccccc3)nc2)cc(S(=O)(=O)O)c2ccccc12 [Example 29, 4-amino-3-[6-(2-phenoxyphenyl)pyridine-3-ylazo]naphthalene-1-sulfonic acid sodium salt]	287

Source: US9573887B2, “Naphthalene derivative” (Daito Chemix Corporation, priority 2010, dated 2017)
